Entries after “also recorded” stand apart in the source; their conditions may differ.
Key:
DRO cells [1] = assay: Clonogenic growth of DRO cells in soft agar; type: cell-based, human; settings: two weeks
Protocol: The ability of RS5444 to inhibit clonogenic growth of DRO cells in soft agar was also examined (FIG. 3C). DRO cells were plated in triplicate on soft agar for colony formation and treated with the indicated doses of RS5444. Colonies were stained and counted after two weeks.

DRO = assay: ATC (DRO) tumor growth in athymic nude mice, RS5444 in diet; type: in vivo; settings: for tumor growth inhibition: started one week prior to DRO implantation
Protocol: RS5444 was added to the rodent diet one week prior to tumor implantation with DRO. […] Suspensions of 1×10^6/0.1 mL DRO or ARO cells in RPMI medium were injected subcutaneously in one flank of 3 to 4 week old athymic female nude mice. […] Mice weighed between 20-25 grams and consumed on average 4 grams of food per day (1 mg/day of RS5444).

DRO cells [2] = assay: Affymetrix Plus 2.0 array, nucleic acid expression in DRO cells in cell culture; type: cell-based, human; settings: 10 nM single dose
Protocol: (§1) Affymetrix Plus 2.0 arrays were used to identify nucleic acids altered between control vehicle-treated and RS5444-treated ATC cells from cell culture and tumors implanted ectopically into athymic nude mice. Cells in culture were treated with a single dose of 10 nM RS5444 for either 2, 6, or 24 hours. Animals were treated with 0.025% RS5444 after implantation of 1×10^6 DRO cells. Animals were fed a diet including 0.025% RS5444 for 35 days, and tumor volume was measured weekly. Tumor tissues were removed, RNA was isolated, and nucleic acid expression was analyzed. Examples of some nucleic acids, the expression of which was altered in both the animal derived tumors and cells in culture, are presented in Table 1. Some of the nucleic acids regulated by PPARγ in ATC cells (e.g., BMP2, MMP14, ANGPTL4, and ITGA5) are secreted polypeptides (Table 1).

[3] = test system: ATC tumors implanted into athymic nude mice; assay: Affymetrix Plus 2.0 array, nucleic acid expression in DRO tumors implanted into athymic nude mice; type: in vivo
Protocol: as §1

DRO cells [4] = assay: Real-time PCR of RhoB and p21 RNA in DRO cells; type: cell-based, human; settings: 10 nM vs DMSO, time course
Protocol: Experiments also were conducted to examine the expression of RhoB in response to treatment with a PPARγ agonist. Cells from the human ATC cell line, DRO, were treated at various time points during 48 hours with DMSO control (0.1%) or 10 nM RS5444. RhoB and p21^WAF1/CIP1 RNA levels were measured using real-time PCR. Data were normalized to DMSO untreated controls for each time point measured.
Total mRNA was isolated from cells using RNAqueous (Ambion) per the manufacturer's protocol followed by ethanol precipitation. Total RNA from normal thyroid tissue was extracted using TOTALLY RNA (Ambion) according to manufacturer's protocol followed by Chroma Spin Column 100 (BD Bioscience). Two-step quantitative reverse transcriptase-mediated real-time PCR (QPCR) was used to measure changes in mRNA levels of target genes in ATC cells. Total RNA was reverse transcribed using the High-Capacity cDNA Archive kit (Applied Biosystems) per the manufacturer's instructions. […] Forty amplification cycles were performed on the Applied Biosystems Prism 7900 sequence detector, with cycle threshold (Ct) values calculated using the Sequence Detection System software (SDS 2.2.2. Applied Biosystems) normalized against 18S rRNA levels. Fold change values either between treated (RS5444) and control samples were calculated using the ΔΔCt method (Livak and Schmittgen, Methods, 25:402-408 (2001)).

[5] = test system: DRO and ARO tumor tissues; assay: Western blot of DRO and ARO tumor tissues from athymic nude mice; type: in vivo
Protocol: RhoB and p21^WAF1/CIP1 polypeptide expression also was examined in DRO and ARO tumor tissues removed from athymic nude mice following 35 days of treatment with vehicle control (−) or 0.025% RS5444 in the diet. Beta-actin was used as a normalization control to ensure even loading of total polypeptide in all lanes.
Suspensions of 1×10^6/0.1 mL DRO or ARO cells in RPMI medium were injected subcutaneously in one flank of 3 to 4 week old athymic female nude mice. Mice were changed to specialized diets 1 week after tumor implantation and randomly assigned to diets consisting of either 0.025% RS5444 or sham control (Research Diets). Mice weighed between 20-25 grams and consumed on average 4 grams of food per day (1 mg/day of RS5444). Tumors were measured every 3 to 4 days for 35 days with calipers and tumor volumes were calculated by the formula: 0.5236(a×b×c), where a is the shortest diameter, b is the diameter perpendicular to a, and c is the diameter height.
Cells were collected and lysed in RIPA buffer containing 50 mM Tris, 5 mM EDTA, 150 mM NaCl, 0.1% SDS, 0.5% Deoxycholate, 1% NP40, and protease inhibitor cocktail (Roche) followed by centrifugation. Excised tumor tissues were lysed in 50 mM Tris pH 8.0+1% SDS. Collected supernatants were, analyzed for protein concentration using Pierce's BCA assay, with 25 μg protein loaded per gel lane (Invitrogen) with later transfer to Immobilon-P membranes. The membranes were hybridized with antibodies (Santa Cruz, Cell Signaling, Sigma-Aldrich, St. Louis Mo.) as indicated overnight at 4° C. followed by treatment with species-specific horseradish peroxidase IgG (Jackson labs) for 45 minutes at room temperature. Detection was performed using Supersignal West Pico chemoluminescence kit (Pierce). Quantification of bands was performed in triplicate using Image Quant 5.2 (Molecular Dynamics, Sunnyvale Calif.).

[6] = DRO and ARO tumors, 0.025% in diet for 35 days

Compound: Cc1cc(Oc2ccc3nc(COc4ccc(CC5SC(=O)NC5=O)cc4)n(C)c3c2)cc(C)c1N (stereo not shown) [RS5444]
- inhibition of colony formation in soft agar (DRO cells [1]; 1 nM): 63%
- inhibition of colony formation in soft agar (DRO cells [1]; 10 nM): 98%
- inhibition of colony formation in soft agar (DRO cells [1]; 100 nM): 99.4%
- tumor growth inhibition (DRO; 0.00025% in diet): No inhibition of tumor growth
- tumor growth inhibition (DRO; 0.0025% in diet): 54.5%
- mice that did not form tumors (DRO; 0.025% diet group): 5 of 10
- tumor growth inhibition (DRO; 0.025% in diet): 89.7%
- Fold change in vitro, ADRB1 (DRO cells [2]; ADRB1, 2 h): −3.3 fold
- Fold change in vitro, ADRB1 (DRO cells [2]; ADRB1, 24 h): −2.2 fold
- Fold change in vitro, ANGPTL4 (DRO cells [2]; ANGPTL4, 2 h): 5.3 fold
- Fold change in vitro, ANGPTL4 (DRO cells [2]; ANGPTL4, 6 h): 4.9 fold
- Fold change in vitro, ANGPTL4 (DRO cells [2]; ANGPTL4, 24 h): 8.4 fold
- Fold change in vitro, BMP2 (DRO cells [2]; BMP2, 24 h): 2.5 fold
- Fold change in vitro, HR (DRO cells [2]; 2 h): 2 fold
- Fold change in vitro, HR (DRO cells [2]; 24 h): 2.3 fold
- Fold change in vitro, IL1B (DRO cells [2]; IL1B, 24 h): 14.2 fold
- Fold change in vitro, ITGA5 (DRO cells [2]; ITGA5, 24 h): 2.2 fold
- Fold change in vitro, LMAN1 (DRO cells [2]; LMAN1, 6 h): −2 fold
- Fold change in vitro, MMP14 (DRO cells [2]; MMP14, 2 h): 5.4 fold
- Fold change in vitro, MMP14 (DRO cells [2]; MMP14, 24 h): 16.9 fold
- Fold change in vitro, RhoB (DRO cells [2]; 2 h): 3.4 fold
- Fold change in vitro, RhoB (DRO cells [2]; 6 h): 4.1 fold
- Fold change in vitro, RhoB (DRO cells [2]; 24 h): 2.8 fold
- Fold change in vivo, ADRB1 ([3]; ADRB1, 0.025% in diet for 35 days): −2 fold
- Fold change in vivo, ANGPTL4 ([3]; ANGPTL4, 0.025% in diet for 35 days): 2 fold
- Fold change in vivo, BMP2 ([3]; BMP2, 0.025% in diet for 35 days): 3.8 fold
- Fold change in vivo, HR ([3]; HR, 0.025% in diet for 35 days): 1.5 fold
- Fold change in vivo, IL1B ([3]; IL1B, 0.025% in diet for 35 days): 5.6 fold
- Fold change in vivo, ITGA5 ([3]; ITGA5, 0.025% in diet for 35 days): 1.9 fold
- Fold change in vivo, LMAN1 ([3]; LMAN1, 0.025% in diet for 35 days): −4.3 fold
- Fold change in vivo, MMP14 ([3]; MMP14, 0.025% in diet for 35 days): 2.5 fold
- Fold change in vivo, RhoB ([3]; RhoB, 0.025% in diet for 35 days): 2 fold
- RhoB mRNA levels (real-time PCR) (DRO cells [4]): RhoB mRNA induction as early as 2 hours; also recorded: significantly elevated at 12 hours through 48 hours
- RhoB polypeptide in tumors (Western blot) ([5]; ATC tumors from mice, 4 weeks of 0.025% in diet): elevated
- RhoB polypeptide expression in tumors [5, 6]: elevated
- cyclin E levels in tumors [5, 6]: down-regulated
- p21WAF1/CIP1 polypeptide expression in tumors [5, 6]: elevated

Reference: patent US20080167532A1, “ASSESSING CANCER TREATMENT RESPONSIVENESS” (Mayo Foundation for Medical Education and Research, priority 2006, published 2008)
